Where a SMILES comes first, the peptide text is derived from it. [ ]: non-standard residue; d: D form. The star is where a group is joined. NHCH2CH2OH = OCCN*; For = O=C*
Experiments:
[1] = H+/Na+ transport assay of bead-derived peptides (one-point); type: biochemical; set-up: key: relative activity; mean of two control wells = 1.00; conditions: bead-derived peptide solution, EYPC/EYPG LUVs;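 further: relative to parent gramicidin A activity set to 1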
Outline: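 One-point screen: peptide + pyranine-loaded LUVs, 30 min RT with vortexing, 96-well. Read-out is fluorescence intensity scaled as 100 × (Ix – I0)/(Imax – I0). Imax from Triton X-100, I0 from untreated vesicles, and the mean of the two control wells is set to 1.00.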

[2] = cell viability/%
Outline: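 First, library peptide stocks are diluted 250-fold in RPMI1640 with 10% heat-inactivated FBS. Next, they are mixed with P388 cells to give 1 × 10^4 cells/mL and incubated 92 h at 37 °C, 5% CO2. Finally, viability (%) is scored by WST-1 absorbance at 415 nm.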

[3] = system: Streptococcus pyogenes SSI-9; test: Antibacterial activity assay of bead-derived peptides (three concentrations); type: cell-based; set-up: key: +++: inhibition by the 640-fold diluted peptide solution; ++: inhibition by the 160-fold diluted solution; +: inhibition by the 40-fold diluted solution; -: no inhibition; conditions: S. pyogenes, bead-derived peptide solution, three concentrations
Outline: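 Three stock dilutions per peptide (none, 4-fold, 16-fold in DMSO) are screened in 96-well format. The medium is blood-supplemented cation-adjusted MHB, inoculated with 2 × 10^5 CFU S. pyogenes SSI-9. Growth is read as cell precipitation at 18 h, 37 °C.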

SMILES | H+/Na+ transport activity normalized against the value of 1 (1.00) [1] | viability [2] | antibacterial activity [3]
CC(C)C[C@@H](NC(=O)[C@H](Cc1c[nH]c2ccccc12)NC(=O)[C@H](NC(=O)[C@H](Cc1c[nH]c2ccccc12)NC(=O)[C@@H](CC(C)C)NC(=O)[C@H](Cc1c[nH]c2ccccc12)NC(=O)[C@H](NC(=O)[C@@H](NC(=O)[C@H](NC(=O)[C@H](C)NC(=O)[C@H](NC(=O)[C@H](C)NC(=O)CNC(=O)[C@@H](NC=O)C(C)C)C(C)C)C(C)C)C(C)C)[C@H](C)O)C(C)C)C(=O)N[C@@H](Cc1c[nH]c2ccccc12)C(=O)NCCO [compound 2829] (For-VGA[dV]A[dV]V[dT]W[dL]W[dV]W[dL]W-NHCH2CH2OH) | 1.13 | 100% | -
CC(C)C[C@@H](NC(=O)[C@H](C)NC(=O)CNC(=O)[C@@H](NC=O)C(C)C)C(=O)N[C@@H](C)C(=O)N[C@@H](C(=O)N[C@H](C(=O)N[C@H](CC(C)C)C(=O)N[C@@H](Cc1c[nH]c2ccccc12)C(=O)N[C@@H](C(=O)N[C@@H](Cc1c[nH]c2ccccc12)C(=O)N[C@H](CC(C)C)C(=O)N[C@@H](Cc1c[nH]c2ccccc12)C(=O)N[C@@H](C(=O)N[C@@H](Cc1c[nH]c2ccccc12)C(=O)NCCO)[C@H](C)O)[C@H](C)O)C(C)C)C(C)C [compound 4868] (For-VGA[dL]A[dV]V[dL]W[dT]W[dL]W[dT]W-NHCH2CH2OH) | 1.06 | 100% | -
CC(C)C[C@@H](NC(=O)[C@H](Cc1c[nH]c2ccccc12)NC(=O)[C@H](NC(=O)[C@@H](NC(=O)[C@H](NC(=O)[C@H](C)NC(=O)[C@H](NC(=O)[C@H](C)NC(=O)CNC(=O)[C@@H](NC=O)C(C)C)C(C)C)[C@H](C)O)C(C)C)C(C)C)C(=O)N[C@@H](Cc1c[nH]c2ccccc12)C(=O)N[C@@H](C(=O)N[C@@H](Cc1c[nH]c2ccccc12)C(=O)N[C@@H](C(=O)N[C@@H](Cc1c[nH]c2ccccc12)C(=O)NCCO)C(C)C)C(C)C [compound 9055] (For-VGA[dV]A[dT]V[dV]W[dL]W[dV]W[dV]W-NHCH2CH2OH) | 1.01 | 83.5% | -
CC(C)C[C@@H](NC(=O)[C@H](C)NC(=O)CNC(=O)[C@@H](NC=O)C(C)C)C(=O)N[C@@H](C)C(=O)N[C@H](CC(C)C)C(=O)N[C@H](C(=O)N[C@@H](C(=O)N[C@@H](Cc1c[nH]c2ccccc12)C(=O)N[C@@H](C(=O)N[C@@H](Cc1c[nH]c2ccccc12)C(=O)N[C@@H](C(=O)N[C@@H](Cc1c[nH]c2ccccc12)C(=O)N[C@@H](C(=O)N[C@@H](Cc1c[nH]c2ccccc12)C(=O)NCCO)C(C)C)C(C)C)C(C)C)[C@H](C)O)C(C)C [compound 10609] (For-VGA[dL]A[dL]V[dT]W[dV]W[dV]W[dV]W-NHCH2CH2OH) | 1.15 | 79.4% | -
CNC(=O)C[C@@H](NC(=O)[C@H](Cc1c[nH]c2ccccc12)NC(=O)[C@H](NC(=O)[C@@H](NC(=O)[C@@H](CC(C)C)NC(=O)[C@H](C)NC(=O)[C@H](NC(=O)[C@H](C)NC(=O)CNC(=O)[C@@H](NC=O)C(C)C)C(C)C)C(C)C)C(C)C)C(=O)N[C@@H](Cc1c[nH]c2ccccc12)C(=O)N[C@H](CC(C)C)C(=O)N[C@@H](Cc1c[nH]c2ccccc12)C(=O)N[C@H](CC(C)C)C(=O)N[C@@H](Cc1c[nH]c2ccccc12)C(=O)NCCO [compound 5838] (For-VGA[dV]A[dL]V[dV]W[dD](NHMe)W[dL]W[dL]W-NHCH2CH2OH) | 1.12 | 100% | -

— paper PMC7531004, “Discovery of gramicidin A analogues with altered activities by multidimensional screening of a one-bead-one-compound library” (Nature Communications, 2020)
